# Values joined by “and” are separate entries in the source; they are usually repeats but may differ in a detail not shown here. Equal values may be shown once.
# Tested on: BDF1 mice, Adenocarcinoma 755 s.c., tumor weight T/C
# Assay: NCI In Vivo Anticancer Drug Screen. Data for tumor model Adenocarcinoma 755 (subcutaneous) in B6D2F1 (BDF1) mice
# Details: endpoint: mean tumor weight, vehicle: steriod suspending solution, higher = larger tumour
# How it was run: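 Transplantable tumor implanted; mice dosed with compound or vehicle; survival or tumor size recorded; ratio of treated to vehicle control reported.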
structure (smiles),measurement,setting,value
CC(=O)[C@@]1(O)CC[C@H]2[C@@H]3C[C@H](C)C4=CC(=O)C=C[C@]4(C)[C@@]3(F)[C@@H](O)C[C@@]21C,T/C,"dose: 0.37 mg/kg/injection, schedule: Q#A X022 (sc)",55 % of control
same,T/C,"dose: 0.5 mg/kg/injection, schedule: Q01DX011 (sc)",40 % of control
same,T/C,"dose: 0.75 mg/kg/injection, schedule: Q#A X022 (sc)",67 % of control
same,T/C,"dose: 1.0 mg/kg/injection, schedule: Q03DX004 (sc)",62 % of control
same,T/C,"dose: 1.5 mg/kg/injection, schedule: Q#A X022 (sc)",44 % of control
same,T/C,"dose: 1.6 mg/kg/injection, schedule: Q01DX011 (sc)",57 % of control
same,T/C,"dose: 2.0 mg/kg/injection, schedule: Q03DX004 (sc)",44 % of control
same,T/C,"dose: 3.0 mg/kg/injection, schedule: Q01DX011 (im)",43 % of control
same,T/C,"dose: 3.0 mg/kg/injection, schedule: Q01DX011 (sc)",47 % of control and 51 % of control
same,T/C,"dose: 3.0 mg/kg/injection, schedule: Q#A X022 (sc)",39 % of control
same,T/C,"dose: 3.2 mg/kg/injection, schedule: Q01DX011 (sc)",31 % of control
same,T/C,"dose: 4.0 mg/kg/injection, schedule: Q03DX004 (sc)",72 % of control
same,T/C,"dose: 6.0 mg/kg/injection, schedule: Q01DX011 (im)",38 % of control
same,T/C,"dose: 6.0 mg/kg/injection, schedule: Q01DX011 (sc)",16 % of control and 25 % of control
same,T/C,"dose: 6.3 mg/kg/injection, schedule: Q01DX011 (sc)",49 % of control
same,T/C,"dose: 8.0 mg/kg/injection, schedule: Q03DX004 (sc)",52 % of control
same,T/C,"dose: 9.0 mg/kg/injection, schedule: Q03DX004 (sc)",35 % of control
same,T/C,"dose: 12.0 mg/kg/injection, schedule: Q01DX011 (sc)",16 % of control
same,T/C,"dose: 12.5 mg/kg/injection, schedule: Q01DX006 (iv)",45 % of control
same,T/C,"dose: 12.5 mg/kg/injection, schedule: Q01DX011 (im)",21 % of control
same,T/C,"dose: 12.5 mg/kg/injection, schedule: Q01DX011 (ip)",48 % of control
same,T/C,"dose: 12.5 mg/kg/injection, schedule: Q01DX011 (sc)",19 % of control and 39 % of control
same,T/C,"dose: 18.0 mg/kg/injection, schedule: Q03DX004 (sc)",35 % of control
same,T/C,"dose: 22.0 mg/kg/injection, schedule: Q## X002 (sc)",55 % of control
same,T/C,"dose: 24.0 mg/kg/injection, schedule: Q01DX011 (sc)",20 % of control
same,T/C,"dose: 25.0 mg/kg/injection, schedule: Q01DX006 (iv)",30 % of control
same,T/C,"dose: 25.0 mg/kg/injection, schedule: Q01DX011 (im)",12 % of control
same,T/C,"dose: 25.0 mg/kg/injection, schedule: Q01DX011 (ip)",42 % of control
same,T/C,"dose: 25.0 mg/kg/injection, schedule: Q01DX011 (sc)",12 % of control
same,T/C,"dose: 27.5 mg/kg/injection, schedule: Q01DX011 (sc)",36 % of control and 54 % of control
same,T/C,"dose: 37.0 mg/kg/injection, schedule: Q03DX004 (sc)",36 % of control
same,T/C,"dose: 43.0 mg/kg/injection, schedule: Q## X002 (sc)",30 % of control
same,T/C,"dose: 50.0 mg/kg/injection, schedule: Q01DX006 (iv)",25 % of control
same,T/C,"dose: 50.0 mg/kg/injection, schedule: Q01DX011 (im)",14 % of control
same,T/C,"dose: 50.0 mg/kg/injection, schedule: Q01DX011 (ip)",34 % of control
same,T/C,"dose: 50.0 mg/kg/injection, schedule: Q01DX011 (oral)",47 % of control
same,T/C,"dose: 50.0 mg/kg/injection, schedule: Q01DX011 (sc)",11 % of control
same,T/C,"dose: 55.0 mg/kg/injection, schedule: Q01DX011 (sc)",28 % of control
same,T/C,"dose: 75.0 mg/kg/injection, schedule: Q03DX004 (sc)",18 % of control
same,T/C,"dose: 87.0 mg/kg/injection, schedule: Q01DX001 (sc)",53 % of control and 66 % of control
same,T/C,"dose: 87.0 mg/kg/injection, schedule: Q07DX002 (sc)",37 % of control
same,T/C,"dose: 100.0 mg/kg/injection, schedule: Q01DX006 (iv)",19 % of control
same,T/C,"dose: 100.0 mg/kg/injection, schedule: Q01DX011 (im)",7 % of control
same,T/C,"dose: 100.0 mg/kg/injection, schedule: Q01DX011 (oral)",59 % of control
same,T/C,"dose: 100.0 mg/kg/injection, schedule: Q01DX011 (sc)",13 % of control
same,T/C,"dose: 150.0 mg/kg/injection, schedule: Q03DX004 (sc)",25 % of control
same,T/C,"dose: 175.0 mg/kg/injection, schedule: Q01DX001 (sc)",38 % of control and 43 % of control
same,T/C,"dose: 175.0 mg/kg/injection, schedule: Q07DX002 (sc)",27 % of control
same,T/C,"dose: 200.0 mg/kg/injection, schedule: Q01DX006 (iv)",14 % of control
same,T/C,"dose: 200.0 mg/kg/injection, schedule: Q01DX011 (im)",8 % of control
same,T/C,"dose: 200.0 mg/kg/injection, schedule: Q01DX011 (oral)",42 % of control
same,T/C,"dose: 200.0 mg/kg/injection, schedule: Q01DX011 (sc)",3 % of control
same,T/C,"dose: 300.0 mg/kg/injection, schedule: Q01DX011 (sc)",7 % of control
same,T/C,"dose: 300.0 mg/kg/injection, schedule: Q03DX004 (sc)",15 % of control
same,T/C,"dose: 350.0 mg/kg/injection, schedule: Q01DX001 (sc)",28 % of control and 47 % of control
same,T/C,"dose: 350.0 mg/kg/injection, schedule: Q07DX002 (sc)",19 % of control
same,T/C,"dose: 400.0 mg/kg/injection, schedule: Q01DX011 (oral)",34 % of control
same,T/C,"dose: 400.0 mg/kg/injection, schedule: Q03DX004 (sc)",19 % of control
same,T/C,"dose: 500.0 mg/kg/injection, schedule: Q01DX011 (oral)",37 % of control
same,T/C,"dose: 600.0 mg/kg/injection, schedule: Q01DX011 (oral)",38 % of control
same,T/C,"dose: 600.0 mg/kg/injection, schedule: Q03DX004 (sc)",15 % of control
same,T/C,"dose: 700.0 mg/kg/injection, schedule: Q01DX001 (sc)",26 % of control and 43 % of control
same,T/C,"dose: 700.0 mg/kg/injection, schedule: Q07DX002 (sc)",19 % of control
same,T/C,"dose: 1000.0 mg/kg/injection, schedule: Q01DX001 (sc)",36 % of control and 45 % of control
same,T/C,"dose: 1000.0 mg/kg/injection, schedule: Q## X002 (sc)",22 % of control
same,T/C,"dose: 1500.0 mg/kg/injection, schedule: Q01DX001 (sc)",24 % of control and 40 % of control
same,T/C,"dose: 1500.0 mg/kg/injection, schedule: Q## X002 (sc)",24 % of control
